Data: patent publication US9980973B2, “Bicyclic heterocycle compounds and their uses in therapy” (ASTEX THERAPEUTICS LIMITED, priority 2012, dated 2018)
Structures can show the parent of a compound that is named as a salt. Where two headings read alike, the source gives them in different places.

Tested on: EVSA-T (human breast carcinoma)
Assay: Anti-proliferative activity, Alamar Blue assay, EVSA-T
Assay type: cell-based
[1] = Homo sapiens, EVSA-T, 72 h, EVSA-T cells, 72 hours, Alamar Blue, read-out: EVSA-T prolif
[2] = Homo sapiens, EVSA-T, read-out: EC50 in EVSA-T cell line assays
[3] = EVSA-T cells, 72 hours, Alamar Blue, dihydrochloride, read-out: EVSA-T prolif

| EC50 [1] | EC50 [2] | Compound | EC50 [3] |
| --- | --- | --- | --- |
| 3.1 nM | < 1000 nM | C[C@@H]1CN(CC(=O)N2CC(C)(C)c3ncc(Cc4ccc(F)cc4)cc32)[C@@H](CN2CCOCC(F)(F)C2)CN1 [Example 28, 2-[(2R,5R)-2-[(6,6-Difluoro-1,4-oxazepan-4-yl)methyl]-5-methylpiperazin-1-yl]-1-{6-[(4-fluorophenyl)methyl]-3,3-dimethyl-1H,2H,3H-pyrrolo[3,2-b]pyridin-1-yl}ethan-1-one dihydrochloride] |  |
| 0.3 nM | < 1000 nM | C[C@@H]1CN(CC(=O)N2CC(C)(C)c3ncc(Cc4ccc(F)cc4F)cc32)[C@@H](CN2C[C@H](CO)OC[C@H]2C)CN1 [Example 120, 1-{6-[(2,4-Difluorophenyl)methyl]-3,3-dimethyl-1H,2H,3H-pyrrolo[3,2-b]pyridin-1-yl}-2-[(2R,5R)-2-{[(2R,5R)-2-(hydroxymethyl)-5-methylmorpholin-4-yl]methyl}-5-methylpiperazin-1-yl]ethan-1-one, dihydrochloride] |  |
| 0.37 nM | < 1000 nM | C[C@@H]1CN(CC(=O)N2CC(C)(C)c3c2cc(Cc2ccc(F)cc2)c[n+]3[O-])[C@@H](CN2[C@H](C)COC[C@H]2C)CN1 [Example 121, 1-{2-[(2R,5R)-2-{[(3R,5R)-3,5-Dimethylmorpholin-4-yl]methyl}-5-methylpiperazin-1-yl]acetyl}-6-[(4-fluorophenyl)methyl]-3,3-dimethyl-1H,2H,3H-pyrrolo[3,2-b]-pyridin-4-oxide dihydrochloride] |  |
| 29 nM | < 1000 nM | CCCC(O)c1cc2c(cn1)C(C)(C)CN2C(=O)CN1C[C@@H](C)NC[C@@H]1CN1[C@H](C)COC[C@H]1C (stereo partly drawn) [Example 90, 2-[(2R,5R)-2-{[(3R,5R)-3,5-Dimethylmorpholin-4-yl]methyl}-5-methylpiperazin-1-yl]-1-[6-(1-hydroxybutyl)-3,3-dimethyl-1H,2H,3H-pyrrolo[3,2-c]pyridin-1-yl]ethan-1-one dihydrochloride] |  |
| 0.9 nM | < 1000 nM | C[C@@H]1CN(CC(=O)N2CC(C)(C)c3ncc(Cc4ccc(F)cc4)cc32)[C@@H](CN2CCOCC2(C)CO)CN1 (stereo partly drawn) [Example 47, 1-{6-[(4-Fluorophenyl)methyl]-3,3-dimethyl-1H,2H,3H-pyrrolo[3,2-b]pyridin-1-yl}-2-[(2R,5R)-2-{[3-(hydroxymethyl)-3-methylmorpholin-4-yl]methyl}-5-methylpiperazin-1-yl]ethan-1-one, dihydrochloride] |  |
| 3 nM | < 1000 nM | CC1CC(=O)CCN1C[C@H]1CN[C@H](C)CN1CC(=O)N1CC(C)(C)c2ncc(Cc3ccc(F)cc3)cc21 (stereo partly drawn) [Example 8, 1-{[(2R,5R)-1-(2-{6-[(4-Fluorophenyl)methyl]-3,3-dimethyl-1H,2H,3H-pyrrolo[3,2-b]pyridin-1-yl}-2-oxoethyl)-5-methylpiperazin-2-yl]methyl}-2-methylpiperidin-4-one dihydrochloride] |  |
| 2.8 nM | < 1000 nM | C[C@@H]1CN(CC(=O)N2CC(C)(C)c3ncc(Cc4ccc(F)cc4)cc32)[C@@H](CN2[C@H](CO)COC[C@H]2C)CN1 [Example 37, 1-{6-[(4-Fluorophenyl)methyl]-3,3-dimethyl-1H,2H,3H-pyrrolo[3,2-b]pyridin-1-yl}-2-[(2R,5R)-2-{[(3R,5R)-3-(hydroxymethyl)-5-methylmorpholin-4-yl]methyl}-5-methylpiperazin-1-yl]ethan-1-one, dihydrochloride] |  |
| 98 nM | < 1000 nM | C[C@@H]1CN(CC(=O)N2CC(C)(C)c3ncc(Cc4ccc(F)cc4)cc32)[C@@H](CN2CCn3cnnc3C2)CN1 [Example 71, 1-{6-[(4-Fluorophenyl)methyl]-3,3-dimethyl-1H,2H,3H-pyrrolo[3,2-b]pyridin-1-yl}-2-[(2R,5R)-5-methyl-2-{5H, 6H, 7H, 8H-[1,2,4]triazolo[4,3-a]pyrazin-7-ylmethyl}piperazin-1-yl]ethan-1-one dihydrochloride] |  |
| 5.4 nM | < 1000 nM | CC1CC(=O)CCN1C[C@H]1CN[C@H](C)CN1CC(=O)N1CC(C)(C)c2ncc(Cc3ccc(F)cc3)cc21 (single isomer, unassigned) [Example 39, (2R or 2S)-1-{[(2R,5R)-1-(2-{6-[(4-Fluorophenyl)methyl]-3,3-dimethyl-1H,2H,3H-pyrrolo[3,2-b]pyridin-1-yl}-2-oxoethyl)-5-methylpiperazin-2-yl]methyl}-2-methylpiperidin-4-one dihydrochloride] |  |
| 0.48 nM | < 1000 nM | C[C@@H]1CN(CC(=O)N2CC(C)(C)c3cnc(Cc4ccc(F)cc4F)cc32)[C@@H](CN2[C@H](C)COC[C@H]2C)CN1 [Example 63, 1-{6-[(2,4-Difluorophenyl)methyl]-3,3-dimethyl-1H,2H,3H-pyrrolo[3,2-c]pyridin-1-yl}-2-[(2R,5R)-2-{[(3R,5R)-3,5-dimethylmorpholin-4-yl]methyl}-5-methylpiperazin-1-yl]ethan-1-one, dihydrochloride] |  |
| 0.46 nM | < 1000 nM | CC(=O)N1CCN(C[C@H]2CN[C@H](C)CN2CC(=O)N2CC(C)(C)c3ncc(Cc4ccc(F)cc4)cc32)C(C)C1 (mixture of isomers) [Example 33, 2-[(2R,5R)-2-[(4-Acetyl-2-methylpiperazin-1-yl)methyl]-5-methylpiperazin-1-yl]-1-{6-[(4-fluorophenyl)methyl]-3,3-dimethyl-1H,2H,3H-pyrrolo[3,2-b]pyridin-1-yl}ethan-1-one dihydrochloride] |  |
| 3.8 nM | < 1000 nM | C[C@@H]1CN(CC(=O)N2CC(C)(C)c3ncc(Cc4ccc(F)cc4)cc32)[C@@H](CN2CCC(O)CC2)CN1 [Example 23, 1-{6-[(4-Fluorophenyl)methyl]-3,3-dimethyl-1H,2H,3H-pyrrolo[3,2-b]pyridin-1-yl}-2-[(2R,5R)-2-[(4-hydroxypiperidin-1-yl)methyl]-5-methylpiperazin-1-yl]ethan-1-one dihydrochloride] |  |
| 1.2 nM | < 1000 nM | C[C@@H]1CN(CC(=O)N2CC(C)(C)c3ncc(Cc4ccc(F)cc4)cc32)[C@@H](CN2CCC[C@H]2CF)CN1 [Example 30, 2-[(2R,5R)-2-{[(2S)-2-(Fluoromethyl)pyrrolidin-1-yl]methyl}-5-methylpiperazin-1-yl]-1-{6-[(4-fluorophenyl)methyl]-3,3-dimethyl-1H,2H,3H-pyrrolo[3,2-b]pyridin-1-yl}ethan-1-one dihydrochloride] |  |
| 0.32 nM | < 1000 nM | C[C@@H]1CN(CC(=O)N2CC(C)(C)c3ncc(Cc4ccc(F)cc4)cc32)[C@@H](CN2C[C@H](CO)OC[C@H]2C)CN1 [Example 119, 1-{6-[(4-Fluorophenyl)methyl]-3,3-dimethyl-1H,2H,3H-pyrrolo[3,2-b]pyridin-1-yl}-2-[(2R,5R)-2-{[(2R,5R)-2-(hydroxymethyl)-5-methylmorpholin-4-yl]methyl}-5-methylpiperazin-1-yl]ethan-1-one, dihydrochloride] |  |

| Compound | EC50 [1] | EC50 [2] | EC50 [3] |
| --- | --- | --- | --- |
| C[C@@H]1CN(CC(=O)N2CC(C)(C)c3ncc(Cc4ccc(F)cc4)cc32)[C@@H](CN2CCC[C@@H](F)C2)CN1 [Example 14, 1-{6-[(4-Fluorophenyl)methyl]-3,3-dimethyl-1H,2H,3H-pyrrolo[3,2-b]pyridin-1-yl}-2-[(2R,5R)-2-{[(3R)-3-fluoropiperidin-1-yl]methyl}-5-methylpiperazin-1-yl]ethan-1-one dihydrochloride] | 4.6 nM | < 1000 nM |  |
| C[C@@H]1CN(CC(=O)N2CC(C)(C)c3ncc(C(O)c4ccc(F)c(F)c4)cc32)[C@@H](CN2[C@H](C)COC[C@H]2C)CN1 (single isomer, unassigned) [Example 109, (R or S)-1-{6-[(3,4-Difluorophenyl)(hydroxy)meth-yl]-3,3-dimethyl-1H,2H,3H-pyrrolo[3,2-b]pyridin-1-yl}-2-[(2R,5R)-2-{[(3R,5R)-3,5-dimethylmorpholin-4-yl]methyl}-5-methylpiperazin-1-yl]ethan-1-one dihydrochloride] |  | < 1000 nM | 9.7 nM |
| C[C@@H]1CN(CC(=O)N2CC(C)(C)c3ncc(Cc4ccc(F)cc4)cc32)[C@@H](CN2CCOCC23CC3)CN1 [Example 10, 1-{6-[(4-Fluorophenyl)methyl]-3,3-dimethyl-1H,2H,3H-pyrrolo[3,2-b]pyridin-1-yl}-2-[(2R,5R)-5-methyl-2-{7-oxa-4-azaspiro[2.5]octan-4-ylmethyl}piperazin-1-yl]ethan-1-one dihydrochloride] | 0.42 nM | < 1000 nM |  |
| C[C@@H]1CN(CC(=O)N2CC(C)(C)c3ncc(C(O)c4ccccc4)cc32)[C@@H](CN2[C@H](C)COC[C@H]2C)CN1 (single isomer, unassigned) [Example 113, 2-[(2R,5R)-2-{[(3R,5R)-3,5-Dimethylmorpholin-4-yl]methyl}-5-methylpiperazin-1-yl]-1-{(R or S)-6-[hydroxy(phenyl)methyl]-3,3-dimethyl-1H,2H,3H-pyrrolo[3,2-]pyridin-1-yl}ethan-1-one dihydrochloride] | 9.4 nM | < 1000 nM |  |
| COCC1(C)COCCN1C[C@H]1CN[C@H](C)CN1CC(=O)N1CC(C)(C)c2ncc(Cc3ccc(F)cc3)cc21 (single isomer, unassigned) [Example 99, dihydrochloride] | 1.5 nM |  |  |
| CC(C)[C@@H]1COCCN1C[C@H]1CN[C@H](C)CN1CC(=O)N1CC(C)(C)c2ncc(Cc3ccc(F)cc3)cc21 [Example 13, 1-{6-[(4-Fluorophenyl)methyl]-3,3-dimethyl-1H,2H,3H-pyrrolo[3,2-b]pyridin-1-yl)-2-[(2R,5R)-5-methyl-2-{[(3R)-3-(propan-2-yl)morpholin-4-yl]methyl}piperazin-1-yl]ethan-1-one dihydrochloride] | 1.2 nM | < 1000 nM |  |
| C[C@@H]1CN(CC(=O)N2CC(C)(C)c3ncc(C(O)c4ccc(F)cc4F)cc32)[C@@H](CN2[C@H](C)COC[C@H]2C)CN1 (single isomer, unassigned) [Example 103, (R or S)-1-[6-[(2,4-Difluorophenyl)(hydroxy)meth-yl]-3,3-dimethyl-1H,2H,3H-pyrrolo[3,2-b]pyridin-1-yl}-2-[(2R,5R)-2-{[(3R,5R)-3,5-dimethylmorpholin-4-yl]methyl}-5-methylpiperazin-1-yl]ethan-1-one dihydrochloride] |  | < 1000 nM | 2.8 nM |
